Test results: US20240158370A1, “CK1 alpha AND DUAL CK1 alpha / GSPT1 DEGRADING COMPOUNDS” (Innovo Therapeutics, Inc., priority 2022, published 2024)

Experiments:
Assay type in all cases: cell-based
CK1α = target: T1, CK1α (Homo sapiens, UniProt P48729+Q96SW2); assay: HiBiT degradation assay, CK1α, Procedure A; conditions: six hours incubation
T1 construct: CSNK1A1-HiBit KI HEK293(LgBit) Cells; host or cells: HEK293(LgBit) knock-in cells
In short: (§1)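 DC50 and Ymin (% remaining) were derived by four-parameter fitting of luminescence data. The data come from a six-hour, 37° C compound exposure of cells in DMEM/10% FBS over a ten-point range, 10 μM to 0.005 μM, followed by Nano-Glo HiBiT lytic detection.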

Z-138 cells = assay: Z-138 Proliferation Assay (Cell Titer-Glo); conditions: 72 hours; for Ymin (%): % remaining (percent of DMSO control); for EC50: Homo sapiens, Cell Titer-Glo, 4-parameter curve fit
Description: Z-138 Proliferation Assay
Z-138 cells were cultured in IMDM Medium supplemented with 10% heat in-activated fetal bovine serum and 1% Penicillin-Streptomycin.
10 mM stocks of compound were made from fresh powder. DMSO was added to solid compound so that the final concentration was 10 mM. Compounds were vortexed and allowed to sit for 5 minutes to ensure complete solubility. Solvated compound was aliquoted into 1 ml Eppendorf tubes and stored in a −20° C. freezer.
Z-138 cells were maintained in culture using standard cell culturing techniques.
Cells were maintained at a density of 0.8×10^6 cells/ml.
Re-constitute cell titer-glo reagent according to manufacturer's protocol.
Z-138 cells were removed from culture and cell viability and density were determined using a CellDrop™ Automated Cell Counter with Tryphan blue stain according to manufacturer's protocols. Cells were centrifuged and resuspended using fresh media to a cell density of 0.1×10^6 cells/ml. […] 40 μl of cell suspension was added to the wells of a 384 well tissue culture plate (4,000 cells/well final). Upon completing the addition of the cells to the plate, the plates were centrifuged for 30 seconds at 300 rpms to help the cells settle and to bring air bubbles to the top of the wells. Air bubbles were popped using a pipette tip.
10-point dose response curves were performed using a D300e Digital Dispenser. The highest concentration of compound used in the assay was 10,000 nM. 1:2 dilutions were performed over a 10-point range with the final DMSO concentration being 0.1%. The cells were cultured for 72 hours in the presence of compound.
After 72 hours, the cell plates were removed from the incubator and allowed to equilibrate to room temperature (about 15 minutes). 20 μl of cell titer-glo reagent was added to each well of the 384 well plate. Incubated the plate for 30 minutes in the dark. After 30 minutes, ensured that there were no air bubbles in the plate (popped bubbles with pipette tip if necessary) and analyzed plate using a luminometer.
EC50 curves were generated using Prism Graph Pad. In brief, POCs (percent of control, compound/DMSO control×100) were plotted against the compound concentrations (log scale). EC50 curves were generated using a 4-parameter curve fit.

GSPT1 = GSPT1 (Homo sapiens, UniProt P15170+Q96SW2); assay: HiBiT degradation assay, GSPT1, Procedure A; parameters: HiBit-GSPT1 KI HEK293(LgBit) Cells; host or cells: HEK293(LgBit) knock-in cells; conditions: six hours incubation
Sequence of GSPT1 (P15170 whole entry): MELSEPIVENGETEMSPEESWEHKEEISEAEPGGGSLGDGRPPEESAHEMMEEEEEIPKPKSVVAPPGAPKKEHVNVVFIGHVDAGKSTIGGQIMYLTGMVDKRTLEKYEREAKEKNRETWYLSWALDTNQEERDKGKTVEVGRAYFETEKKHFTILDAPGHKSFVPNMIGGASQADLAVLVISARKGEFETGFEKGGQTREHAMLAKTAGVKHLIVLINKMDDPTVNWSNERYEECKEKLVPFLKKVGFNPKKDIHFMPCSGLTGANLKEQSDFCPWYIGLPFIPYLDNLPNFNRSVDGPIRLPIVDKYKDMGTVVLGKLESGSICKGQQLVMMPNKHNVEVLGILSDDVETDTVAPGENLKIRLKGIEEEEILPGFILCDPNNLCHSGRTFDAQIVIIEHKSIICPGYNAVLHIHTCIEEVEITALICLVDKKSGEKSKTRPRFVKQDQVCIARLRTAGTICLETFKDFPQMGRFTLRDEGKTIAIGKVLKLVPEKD
Sequence of GSPT1 (Q96SW2 whole entry): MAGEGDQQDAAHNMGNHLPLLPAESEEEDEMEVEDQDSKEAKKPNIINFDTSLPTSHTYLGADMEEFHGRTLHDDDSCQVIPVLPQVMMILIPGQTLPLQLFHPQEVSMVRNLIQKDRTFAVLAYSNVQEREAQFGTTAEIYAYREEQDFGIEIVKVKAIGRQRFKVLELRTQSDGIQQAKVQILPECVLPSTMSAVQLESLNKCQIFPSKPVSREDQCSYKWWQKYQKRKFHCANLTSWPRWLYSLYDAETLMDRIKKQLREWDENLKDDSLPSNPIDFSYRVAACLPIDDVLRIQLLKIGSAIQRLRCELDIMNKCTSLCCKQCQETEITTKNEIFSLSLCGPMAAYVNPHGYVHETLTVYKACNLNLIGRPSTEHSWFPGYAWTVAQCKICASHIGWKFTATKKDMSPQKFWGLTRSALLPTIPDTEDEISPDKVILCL
Sequence of GSPT1 (Q16531 whole entry partner): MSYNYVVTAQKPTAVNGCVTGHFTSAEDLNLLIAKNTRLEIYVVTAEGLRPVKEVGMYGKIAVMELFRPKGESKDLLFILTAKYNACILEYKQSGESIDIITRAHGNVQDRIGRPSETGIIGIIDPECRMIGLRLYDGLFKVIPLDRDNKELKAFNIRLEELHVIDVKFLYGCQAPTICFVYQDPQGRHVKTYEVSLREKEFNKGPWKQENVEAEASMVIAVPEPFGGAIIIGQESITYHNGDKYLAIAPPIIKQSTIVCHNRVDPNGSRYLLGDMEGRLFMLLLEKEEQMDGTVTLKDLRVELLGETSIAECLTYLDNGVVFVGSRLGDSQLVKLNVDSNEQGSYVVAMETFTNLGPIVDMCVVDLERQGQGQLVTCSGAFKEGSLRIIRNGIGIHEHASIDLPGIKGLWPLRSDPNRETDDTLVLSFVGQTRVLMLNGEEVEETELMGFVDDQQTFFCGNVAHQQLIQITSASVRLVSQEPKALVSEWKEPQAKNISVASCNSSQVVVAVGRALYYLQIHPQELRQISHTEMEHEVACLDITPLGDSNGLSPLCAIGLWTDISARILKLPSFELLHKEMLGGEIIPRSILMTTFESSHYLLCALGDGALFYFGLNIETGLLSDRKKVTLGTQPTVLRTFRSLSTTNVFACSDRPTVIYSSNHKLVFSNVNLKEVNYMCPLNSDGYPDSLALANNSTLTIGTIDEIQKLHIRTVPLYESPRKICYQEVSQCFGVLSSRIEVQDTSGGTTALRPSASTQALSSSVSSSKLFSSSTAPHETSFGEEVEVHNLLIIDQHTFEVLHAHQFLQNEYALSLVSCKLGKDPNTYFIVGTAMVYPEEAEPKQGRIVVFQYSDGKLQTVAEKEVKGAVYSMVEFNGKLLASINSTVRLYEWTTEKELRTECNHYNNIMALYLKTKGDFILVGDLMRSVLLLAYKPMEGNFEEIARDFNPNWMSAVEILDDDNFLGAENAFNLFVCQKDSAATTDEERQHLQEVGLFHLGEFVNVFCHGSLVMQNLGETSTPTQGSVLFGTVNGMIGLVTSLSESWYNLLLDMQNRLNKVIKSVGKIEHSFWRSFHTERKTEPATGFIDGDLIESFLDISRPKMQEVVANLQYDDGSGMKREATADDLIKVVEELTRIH
In short: as §1

T1 sequence (P48729 whole entry): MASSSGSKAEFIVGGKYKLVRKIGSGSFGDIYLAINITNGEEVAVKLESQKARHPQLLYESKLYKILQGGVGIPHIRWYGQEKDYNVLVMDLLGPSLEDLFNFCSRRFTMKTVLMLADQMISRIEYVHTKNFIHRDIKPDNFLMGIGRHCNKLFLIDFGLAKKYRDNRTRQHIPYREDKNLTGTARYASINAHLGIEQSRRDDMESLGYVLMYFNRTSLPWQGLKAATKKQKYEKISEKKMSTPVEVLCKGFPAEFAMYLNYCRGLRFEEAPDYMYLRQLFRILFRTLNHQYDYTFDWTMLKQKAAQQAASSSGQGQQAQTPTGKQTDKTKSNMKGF
T1 sequence (Q96SW2 whole entry): as the sequence (Q96SW2 whole entry) above
T1 sequence (Q16531 whole entry partner): as the sequence (Q16531 whole entry partner) above

| Structure (SMILES) | CK1α Ymin (CK1α) | DC50 (CK1α) [nM] | Ymin (%) (Z-138 cells) | EC50 (Z-138 cells) [nM] | DC50 (GSPT1) [nM] | GSPT1 Ymin (GSPT1) |
| --- | --- | --- | --- | --- | --- | --- |
| Cc1nc(-c2ccc3c(c2)CN(C2CCC(=O)NC2=O)C3=O)c(-c2ccccc2)n1C (stereo not drawn) [Example 14, 3-(5-(1,2-Dimethyl-5-phenyl-1H-imidazol-4-yl)-1-oxoisoindolin-2-yl)piperidine-2,6-dione] | C (C = 0-10% remaining) | < 25 | D (0-10% remaining) | < 10 | ≥ 25 | E (E = >25-75% remaining) |
| Cc1c(-c2ccccc2)c(-c2ccc3c(c2)CN(C2CCC(=O)NC2=O)C3=O)nn1C (stereo not drawn) [Example 17, 3-(5-(1,5-Dimethyl-4-phenyl-1H-pyrazol-3-yl)-1-oxoisoindolin-2-yl)piperidine-2,6-dione] | C (C = 0-10% remaining) | < 25 | D (0-10% remaining) | < 10 | ≥ 25 | E (E = >25-75% remaining) |
| Cc1nc(-c2ccc3c(c2)CN(C2CCC(=O)NC2=O)C3=O)c(-c2ccccc2)o1 (stereo not drawn) [Example 19, 3-(5-(2-Methyl-5-phenyloxazol-4-yl)-1-oxoisoindolin-2-yl)piperidine-2,6-dione] | C (C = 0-10% remaining) | < 25 | D (0-10% remaining) | < 10 | ≥ 25 | E (E = >25-75% remaining) |
| Cn1cc(-c2ccc3c(c2)CN(C2CCC(=O)NC2=O)C3=O)nc1-c1ccccc1 (stereo not drawn) [Example 25, 3-(5-(1-Methyl-2-phenyl-1H-imidazol-4-yl)-1-oxoisoindolin-2-yl)piperidine-2,6-dione] | C (C = 0-10% remaining) | < 25 | D (0-10% remaining) | < 10 | ≥ 25 | F (F = >75-100% remaining) |
| O=C1CCC(N2Cc3cc(-c4cn(-c5ccccc5)cn4)ccc3C2=O)C(=O)N1 (stereo not drawn) [Example 32, 3-(1-Oxo-5-(1-phenyl-1H-imidazol-4-yl)isoindolin-2-yl)piperidine-2,6-dione] | D (D = >10- 25% remaining) | < 25 | D (0-10% remaining) | < 10 | < 25 | E (E = >25-75% remaining) |
| O=C1CCC(N2Cc3cc(-c4ccn(-c5ccccc5)n4)ccc3C2=O)C(=O)N1 (stereo not drawn) [Example 34, 3-(1-Oxo-5-(1-phenyl-1H-pyrazol-3-yl)isoindolin-2-yl)piperidine-2,6-dione] | D (D = >10- 25% remaining) | < 25 | E (>10-25% remaining) | 10 to 100 | ≥ 25 | F (F = >75-100% remaining) |
| Cn1nc(-c2ccc3c(c2)CN(C2CCC(=O)NC2=O)C3=O)cc1-c1ccccc1 (stereo not drawn) [Example 36, 3-(5-(1-Methyl-5-phenyl-1H-pyrazol-3-yl)-1-oxoisoindolin-2-yl) piperidine-2,6-dione] | D (D = >10- 25% remaining) | < 25 | E (>10-25% remaining) | 10 to 100 | ≥ 25 | F (F = >75-100% remaining) |
| O=C1CCC(N2Cc3cc(-c4coc(-c5ccccc5)n4)ccc3C2=O)C(=O)N1 (stereo not drawn) [Example 37, 3-(1-Oxo-5-(2-phenyloxazol-4-yl)isoindolin-2-yl)piperidine-2,6-dione] | D (D = >10- 25% remaining) | < 25 | F (>25-50% remaining) | 10 to 100 | ≥ 25 | F (F = >75-100% remaining) |
| O=C1CCC(N2Cc3cc(-c4cnoc4-c4ccccc4)ccc3C2=O)C(=O)N1 (stereo not drawn) [Example 39, 3-(1-Oxo-5-(5-phenylisoxazol-4-yl)isoindolin-2-yl)piperidine-2,6-dione] | E (E = >25-75% remaining) | < 25 | D (0-10% remaining) | 100 to 500 | ≥ 25 | F (F = >75-100% remaining) |
| Cn1c(-c2ccccc2)cnc1-c1ccc2c(c1)CN(C1CCC(=O)NC1=O)C2=O (stereo not drawn) [Example 40, 3-(5-(1-Methyl-5-phenyl-1H-imidazol-2-yl)-1-oxoisoindolin-2-yl)piperidine-2,6-dione] | D (D = >10- 25% remaining) | < 25 | D (0-10% remaining) | < 10 | < 25 | D (D = >10- 25% remaining) |
| Cn1cc(-c2ccccc2)nc1-c1ccc2c(c1)CN(C1CCC(=O)NC1=O)C2=O (stereo not drawn) [Example 41, 3-(5-(1-Methyl-4-phenyl-1H-imidazol-2-yl)-1-oxoisoindolin-2-yl)piperidine-2,6-dione] | D (D = >10- 25% remaining) | < 25 | D (0-10% remaining) | 10 to 100 | ≥ 25 | F (F = >75-100% remaining) |
| O=C1CCC(N2Cc3cc(-c4cc(-c5ccccc5)no4)ccc3C2=O)C(=O)N1 (stereo not drawn) [Example 43, 3-(1-Oxo-5-(3-phenylisoxazol-5-yl)isoindolin-2-yl)piperidine-2,6-dione] | D (D = >10- 25% remaining) | < 25 | F (>25-50% remaining) | 100 to 500 | ≥ 25 | F (F = >75-100% remaining) |
| Cn1cc(-c2c(-c3ccc4c(c3)CN(C3CCC(=O)NC3=O)C4=O)nc(C3CC3)n2C)cn1 (stereo not drawn) [Example 46, 3-(5-(2-Cyclopropyl-1-methyl-5-(1-methyl-1H-pyrazol-4-yl)-1H-imidazol-4-yl)-1-oxoisoindolin-2-yl)piperidine-2,6-dione] | C (C = 0-10% remaining) | < 25 | D (0-10% remaining) | < 10 | ≥ 25 | F (F = >75-100% remaining) |
| O=C1CCC(N2Cc3cc(-c4nccn4C4CCCCC4)ccc3C2=O)C(=O)N1 (stereo not drawn) [Example 48, 3-(5-(1-Cyclohexyl-1H-imidazol-2-yl)-1-oxoisoindolin-2-yl)piperidine-2,6-dione] | C (C = 0-10% remaining) | < 25 | D (0-10% remaining) | < 10 | < 25 | D (D = >10- 25% remaining) |
| CCn1nc(-c2ccccc2)c(-c2ccc3c(c2)CN(C2CCC(=O)NC2=O)C3=O)n1 (stereo not drawn) [Example 51, 3-(5-(2-Ethyl-5-phenyl-2H-1,2,3-triazol-4-yl)-1-oxoisoindolin-2-yl)piperidine-2,6-dione] | C (C = 0-10% remaining) | < 25 | D (0-10% remaining) | 10 to 100 | ≥ 25 | F (F = >75-100% remaining) |
| Cn1c(C(F)(F)F)nc(-c2ccc3c(c2)CN(C2CCC(=O)NC2=O)C3=O)c1-c1ccccc1 (stereo not drawn) [Example 52, 3-(5-(1-Methyl-5-phenyl-2-(trifluoromethyl)-1H-imidazol-4-yl)-1-oxoisoindolin-2-yl)piperidine-2,6-dione] | C (C = 0-10% remaining) | < 25 | D (0-10% remaining) | < 10 | < 25 | F (F = >75-100% remaining) |
| COc1ccc(-c2c(-c3ccc4c(c3)CN(C3CCC(=O)NC3=O)C4=O)cnn2C)c(F)c1 (stereo not drawn) [Example 64] | C (C = 0-10% remaining) | < 25 | E (>10-25% remaining) | < 10 | ≥ 25 | F (F = >75-100% remaining) |
| Cc1ccc(-c2c(-c3ccc4c(c3)CN(C3CCC(=O)NC3=O)C4=O)cnn2C)cc1 (stereo not drawn) [Example 72] | D (D = >10- 25% remaining) | < 25 | E (>10-25% remaining) | 10 to 100 | ≥ 25 | F (F = >75-100% remaining) |
| Cn1cnc(-c2ccc3c(c2)CN(C2CCC(=O)NC2=O)C3=O)c1-c1ccc(F)c(C#N)c1 (stereo not drawn) [Example 184] | D (D = >10- 25% remaining) | < 25 | D (0-10% remaining) | 10 to 100 | ≥ 25 | C (C = 0-10% remaining) |
